Experiments:
[1] = target: T1, human mGlu5 receptor (Homo sapiens (Human), UniProt P41594); assay: Calcium fluorescence measurements, antagonist potency (negative allosteric modulator activity); assay type: cell-based; conditions: EC80 of quisqualate as agonist, compounds applied 10 minutes before agonist
From the text: (§1) Cell lines stably transfected were generated using inducible expression vectors encoding human mGlu5 receptor using the Tetracycline-Regulated Expression system (T-REx™ system, Invitrogen, Life Technologies). Human mGluR5 open reading frame (ORF), comprehensive of the stop codon, were cloned into the pcDNA4/TO/myc-His™ A vector, carrying the TetO2. The insertion site was HindIII-PstI for mGluR5 receptors. The obtained constructs were then transfected into the T-REx CHO™ cell line using the FuGENE protocol (Roche); the CHO T-REx™ cell line stably expresses the Tet repressor (from the pcDNA6/TR plasmid) under the selection of blasticidin, 10 μg/ml. Stable clones were obtained selecting with zeocin 1 mg/ml and maintaining in ULTRA CHO medium (LONZA) supplemented with dialyzed FBS, zeocin, blasticidine, at 37° C., in an atmosphere of 5% CO2. The expression of h-mGluR5 receptors was de-repressed with 1 μg/ml tetracycline for 18 h before binding experimentation, while the expression of h-mGluR5 receptors was derepressed respectively with 3 ng/ml and 10 ng/ml tetracycline for 18 h before calcium fluorescence experimentation.
(§2) Cells were seeded into black-walled, clear-bottom, 96-well plates at a density of 80000 cell/well, in RPMI (without Phenol Red, without L-glutamine; Gibco LifeTechnologies, CA) supplemented with 10% dialyzed FBS. Following 18-h incubation with tetracycline, the cells were loaded with […] Ca^2+-sensitive fluorescent dye Fluo-4/AM (Molecular Probes) in Hanks' balanced saline solution (HBSS, Gibco LifeTechnologies, CA) with […] Hepes (Sigma) and 2.5 mM probenecid (Sigma), for 1 h at 37° C. The cells were washed three times with HBSS to remove extracellular dye. Fluorescence signals were measured by using the fluorescence microplate reader Flexstation III (Molecular Devices) at sampling intervals of 1.5 s for 60 s.
(§3) The antagonist potency was determined using the EC80 of the quisqualate used as agonist and the potentiation of mGlu5 activation was determined using the EC20 of the agonist (quisqualate or glutamate). The compounds were applied 10 minutes before the application of the agonist.
(§4) The negative allosteric modulator activity (expressed as IC50) and the positive allosteric modulator activity (expressed as EC50) of the compounds of the invention for the mGlu5 receptors is between 0.1 and 1000 nM.
(§5) The inhibition curves of the tested compounds at cloned mGluR5 subtypes were determined by nonlinear regression analysis using software Prism 4.0 (Graphpad, San Diego, Calif.). The IC50 values and pseudo-Hill slope coefficients were estimated by the program. The values for the inhibition constant, Ki, were calculated according to the equation Ki=IC50/(1+[L]/Kd), where [L] is the concentration of radioligand and Kd is the equilibrium dissociation constant of the radioligand-receptor complex (Cheng et al., Biochem. Pharmacol. (1973), Vol. 22, pp. 3099-3108).

[2] = target: human mGluR5 receptor (Homo sapiens (Human), UniProt P41594); assay: Radioligand binding assay at cloned human mGluR5 receptor subtype ([3H]MPEP); conditions: 4 nM [3H]MPEP, CHO T-REx h-mGluR5 cells, 60 min at 25° C.; read-out: mGlu5 Ki
From the text: as §1
Radioligand Binding Assay at Cloned Human mGluR5 Receptor Subtype
Affinity at transmembrane glutamate metabotropic cloned human mGluR5 receptor was evaluated according to the methods of Anderson (Anderson et al., J Pharmacol. Exp. Ther., (2002), Vol. 303(3), pp. 1044-51), with some modifications. Human cloned mGluR5 was obtained by re-suspending CHO T-REx h-mGluR5 cells (50 μg/well) in 20 mM HEPES, 2 mM MgCl2, 2 mM CaCl2, pH 7.4, that then were incubated in a final volume of 1 ml for 60 min at 25° C. with 4 nM [^3H]MPEP in the absence or presence of competing drugs. Non-specific binding was determined in the presence of 10 μM MPEP. The incubation was stopped by addition of cold Tris buffer pH 7.4 and rapid filtration through 0.2% polyethyleneimine pretreated Filtermat 1204-401 (Perkin Elmer) filters. The filters were then washed with cold buffer and the radioactivity retained on the filters was counted by liquid scintillation spectrometry (Betaplate 1204 BS-Wallac).
as §5

[3] = system: conscious rats; assay: Effect on cystometry in conscious rats; assay type: in vivo, rat; conditions: Minimal Effective Dose that induces statistically significant increase of bladder volume capacity
Method: Male Sprague-Dawley rats [Crl:CD(SD) IGS BR] of 300-400 g b.w. supplied by Charles River Italia were used. The animals were housed with free access to food and water and maintained on a forced 12-hour-light/12-hour-dark cycle at 22-24° C. of temperature, except during the experiment. To quantify urodynamic parameters in conscious rats, cystometrographic studies were performed according to the procedure previously reported (Guarneri et al., Pharmacol. Res. Vol. 24, No. 2, pp. 175-187, 1991).
Briefly, the rats were anaesthetized by intraperitoneal administration of 3 ml/kg of Equithensin solution (pentobarbital 30 mg/kg and chloral hydrate 125 mg/kg) and placed in a supine position. An approximately 10 mm long midline incision was made in the shaved and cleaned abdominal wall. The urinary bladder was gently freed from adhering tissues, emptied and then cannulated via an incision in the bladder body, using a polyethylene cannula (0.58 mm internal diameter, 0.96 mm external diameter) which was permanently sutured with silk thread. […]
On the day of the experiment, the rats were placed in modified Bollman cages, i.e., restraining cages that were large enough to permit the rats to adopt a normal crouched posture, but narrow enough to prevent turning around. […] The intraluminal-pressure signal during infusion of saline into the bladder (cystometrogram) was continuously recorded on a polygraph (Rectigraph-8K San-ei with BM614/2 amplifier from Biomedica Mangoni) or stored on PC by data acquisition system (PowerLab, Chart 4 software, AD Instruments). From the cystometrogram, bladder volume capacity (BVC) was evaluated. […] Basal BVC value was evaluated as the mean of the values observed in the cystometrograms recorded in an initial period of 30-60 minutes. […] The bladder infusion restarted and changes in BVC were evaluated from the mean values obtained in the cystometrograms observed during 1, 2, and 3 hours after treatment. […]
Each experimental group was composed of 4-11 animals. All data were expressed as mean±standard error. […]

[4] = target: T1, human mGlu5 receptor; assay: Calcium fluorescence measurements, potentiation of mGlu5 activation (positive allosteric modulator activity); assay type: cell-based; conditions: EC20 of the agonist (quisqualate or glutamate), compounds applied 10 minutes before agonist
From the text: as §1, §2, §3, §4

[5] = system: C57/BL/6J mice; assay: Novel object recognition test in mice; assay type: in vivo, mouse; conditions: intraperitoneal route, 30 min before training, memory assessed 24 h after training
Method: Novel object memory was assessed during three sessions. This task relies on the innate tendency of a mouse to explore unfamiliar objects vs. familiar objects. Testing was performed in an open-field arena. 24 h prior to training, C57/BL/6J 5-week male mice were habituated to the arena for 10 min (session 1).
During training, mice were administered by intraperitoneal route with the vehicle or the tested compound and after 30 min they were allowed for 5 min to explore two identical objects (A+A, session 2). Long-term object memory was assessed 24 h after the completion of training during which mice were given 5 min to explore the familiar (A) or the novel (B) object (A+B, session 3). The duration of exploration (defined as the mouse's snout or forelimbs physically touching or approaching within 1 cm of an object) of familiar and novel object was measured. The amount of time spent exploring the novel object over the total time exploring both novel and familiar object in each session was used to measure object memory.
For instance, and in particular the activity of compound of Example 34, expressed as MED (Minimal Effective Dose that induces statistically significant difference of exploration of the two objects) is of 10 mg/kg. Statistical analysis of exploration time values, was performed by using a paired Student's test, which was calculated using GraphPad Prisma 4.

[6] = target: T1, human mGlu5 receptor; assay: Fold shift of agonist curve determination; assay type: cell-based; conditions: ratio of EC50 agonist (quisqualate or glutamate) curves in presence and in absence of test compound; compound at 1 μM
From the text: as §1, §2
The PAM potency was evaluated by performing an agonist concentration response curve in the presence of the compounds. The compounds at fixed concentration (0.01 or 0.1 or 1 μM) were applied 10 minutes before the incubation of the agonist (quisqualate or glutamate) dose-response curve. The fold shift was determined as ratio of EC50 agonist curves in presence and in absence of test compound. For instance, and in particular compound 34 has a fold shift of 2.7.

human mGluR5 receptor, sequence (P41594 21-1212): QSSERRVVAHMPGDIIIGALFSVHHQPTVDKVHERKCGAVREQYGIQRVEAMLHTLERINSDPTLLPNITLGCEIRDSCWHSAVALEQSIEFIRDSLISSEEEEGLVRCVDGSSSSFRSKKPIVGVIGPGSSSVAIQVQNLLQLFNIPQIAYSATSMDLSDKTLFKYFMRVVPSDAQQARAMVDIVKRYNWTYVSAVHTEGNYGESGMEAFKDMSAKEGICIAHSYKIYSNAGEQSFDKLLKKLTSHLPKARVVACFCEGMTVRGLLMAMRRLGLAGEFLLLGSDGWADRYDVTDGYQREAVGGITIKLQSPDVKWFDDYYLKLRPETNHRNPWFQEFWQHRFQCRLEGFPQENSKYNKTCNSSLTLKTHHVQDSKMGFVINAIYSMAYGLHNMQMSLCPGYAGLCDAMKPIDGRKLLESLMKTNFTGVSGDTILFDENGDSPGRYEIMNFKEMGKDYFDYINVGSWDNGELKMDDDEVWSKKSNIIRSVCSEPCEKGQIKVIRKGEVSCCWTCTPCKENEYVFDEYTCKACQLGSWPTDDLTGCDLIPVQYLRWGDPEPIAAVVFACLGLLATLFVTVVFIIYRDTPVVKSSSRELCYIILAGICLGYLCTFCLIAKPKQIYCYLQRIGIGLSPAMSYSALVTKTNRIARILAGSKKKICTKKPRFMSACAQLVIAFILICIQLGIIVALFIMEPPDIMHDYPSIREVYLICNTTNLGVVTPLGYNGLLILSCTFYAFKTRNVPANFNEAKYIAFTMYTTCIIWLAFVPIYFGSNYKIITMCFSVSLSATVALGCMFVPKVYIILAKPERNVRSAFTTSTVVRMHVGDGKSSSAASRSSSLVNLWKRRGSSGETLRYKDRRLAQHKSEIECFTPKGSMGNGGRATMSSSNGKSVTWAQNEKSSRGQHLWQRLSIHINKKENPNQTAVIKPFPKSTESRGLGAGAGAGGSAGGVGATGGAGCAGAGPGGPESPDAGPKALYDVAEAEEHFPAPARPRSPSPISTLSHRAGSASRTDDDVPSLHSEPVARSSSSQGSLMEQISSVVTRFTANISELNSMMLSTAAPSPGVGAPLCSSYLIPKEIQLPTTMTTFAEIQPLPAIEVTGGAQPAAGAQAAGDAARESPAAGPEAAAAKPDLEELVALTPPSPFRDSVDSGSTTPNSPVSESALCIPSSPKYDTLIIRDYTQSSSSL
T1 sequence (P41594 21-1212): as above

CCOC(=O)N1CC/C(=C\C#Cc2cc(C#N)ccn2)C(C)(C)C1 [Example 31, ethyl (4E)-4-[3-(4-cyanopyridin-2-yl)prop-2-yn-1-ylidene]-3,3-dimethylpiperidine-1-carboxylate]
IC50 [1]: 13.5 nM
Ki [2]: 2.93 nM
“In vivo” cystometry MED (mg/kg os) [3]: 1 mg/kg

CC1(C)CN(C(=O)c2cccc(Cl)c2)CC/C1=C\C#Cc1cccc(Cl)c1 [Example 34, (3-chlorophenyl){(4E)-4-[3-(3-chlorophenyl)prop-2-yn-1-ylidene]-3,3-dimethylpiperidin-1-yl}methanone]
EC50 [4]: 107 nM
MED (Minimal Effective Dose that induces statistically significant difference of exploration of the two objects) [5]: 10 mg/kg
mGlu5 Fold Shift @1 μM [6]: 2.7
Ki [2]: 0.99 nM

COC(=O)N1CC/C(=C\C#Cc2cccc(Cl)c2)C(C)(C)C1 [Example 40, methyl (4E)-4-[3-(3-chlorophenyl)prop-2-yn-1-ylidene]-3,3-dimethylpiperidine-1-carboxylate]
IC50 [1]: 18.2 nM
Ki [2]: 1.29 nM
“In vivo” cystometry MED (mg/kg os) [3]: 3 mg/kg

CCOC(=O)N1CC/C(=C\C#Cc2cccc(C)n2)C1(C)C [Example 48, ethyl (3E)-2,2-dimethyl-3-[3-(6-methylpyridin-2-yl)prop-2-yn-1-ylidene]pyrrolidine-1-carboxylate]
IC50 [1]: 2.02 nM
Ki [2]: 2.44 nM
“In vivo” cystometry MED (mg/kg os) [3]: 1 mg/kg

From patent US11440922B2, “Heterocyclylmethylidene derivatives and their use as modulators of mGluR5 receptors” (Recordati Industria Chimica e Farmaceutica S.p.A., priority 2017, dated 2022)
